Active and inactive are the calls of the source. The calls are words filed in the database; no cut-off is given here.
How the values were obtained:
CCRF-CEM = experiment: Cytotoxicity against human CCRF-CEM cells assessed as reduction in cell viability incubated for 72 hrs measured by […]-based colorimetric assay; format: functional
HepG2 = experiment: Cytotoxicity against human HepG2 cells assessed as reduction in cell viability incubated for 72 hrs measured by […]-based colorimetric assay; format: functional
HeLa = experiment: Cytotoxicity against human HeLa cells assessed as reduction in cell viability incubated for 72 hrs measured by […]-based colorimetric assay; format: functional
HL-60 = experiment: Cytotoxicity against human HL-60 cells assessed as reduction in cell viability incubated for 72 hrs measured by […]-based colorimetric assay; format: functional
[1] = Inhibition of PREP (unknown origin) using fluorogenic substrate by spectrometric assay; parameters: species or system Homo sapiens
Dipeptidyl peptidase 4 = Dipeptidyl peptidase 4 (Homo sapiens, UniProt P27487); experiment: Inhibition of SF-tagged DPP4 (unknown origin) expressed in Drosophila S2 cells using fluorogenic substrate by spectrometric analysis; format: cell-based
Chain of Dipeptidyl peptidase 4 (P27487 whole entry): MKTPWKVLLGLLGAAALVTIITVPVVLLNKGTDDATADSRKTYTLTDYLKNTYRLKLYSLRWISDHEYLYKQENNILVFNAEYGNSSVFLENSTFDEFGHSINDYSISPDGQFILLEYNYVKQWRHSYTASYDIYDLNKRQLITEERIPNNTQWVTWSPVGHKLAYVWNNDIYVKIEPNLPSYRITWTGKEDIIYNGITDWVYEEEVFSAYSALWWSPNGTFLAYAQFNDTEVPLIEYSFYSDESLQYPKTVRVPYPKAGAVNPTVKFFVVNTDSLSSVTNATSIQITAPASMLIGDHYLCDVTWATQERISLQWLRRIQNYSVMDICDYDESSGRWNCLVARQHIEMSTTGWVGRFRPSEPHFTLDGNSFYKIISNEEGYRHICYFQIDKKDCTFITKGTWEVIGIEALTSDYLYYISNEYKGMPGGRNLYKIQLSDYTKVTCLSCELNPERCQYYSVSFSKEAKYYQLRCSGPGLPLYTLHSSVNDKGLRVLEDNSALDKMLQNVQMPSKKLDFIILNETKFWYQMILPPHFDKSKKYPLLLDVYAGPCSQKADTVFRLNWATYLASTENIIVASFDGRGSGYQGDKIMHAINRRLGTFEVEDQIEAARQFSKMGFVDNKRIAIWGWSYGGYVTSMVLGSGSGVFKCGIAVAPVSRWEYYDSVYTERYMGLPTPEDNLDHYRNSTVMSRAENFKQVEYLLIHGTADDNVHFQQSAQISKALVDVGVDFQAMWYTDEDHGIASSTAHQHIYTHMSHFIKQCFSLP

IC50 [1] | IC50 (Dipeptidyl peptidase 4) | Structure (SMILES) | Activity (CCRF-CEM) | Activity (HepG2) | Activity (HeLa) | Activity (HL-60)
 |  | O=C(CNC(=O)C(=O)[C@@H]1CCCN1C(=O)CNC(=O)c1ccnc2ccccc12)NCc1ccccc1 | inactive | inactive | inactive | inactive
 |  | COC(=O)[C@H](CCCCN)NC(=O)CNC(=O)C(=O)[C@@H]1CCCN1C(=O)CNC(=O)c1ccnc2ccccc12 | inactive | inactive | inactive | inactive
 |  | COC(=O)C(C)NC(=O)C(=O)[C@@H]1CCCN1C(=O)CNC(=O)c1ccnc2ccccc12 (mixture of isomers) | inactive | inactive | inactive | inactive
 |  | COC(=O)C(NC(=O)C(=O)[C@@H]1CCCN1C(=O)CNC(=O)c1ccnc2ccccc12)C(C)C (some centres undefined) | inactive | inactive | inactive | inactive
 |  | COC(=O)CNC(=O)CNC(=O)C(=O)[C@@H]1CCCN1C(=O)CNC(=O)c1ccnc2ccccc12 | inactive | inactive | inactive | inactive
 |  | O=C(NC1CCCCC1)C(=O)[C@@H]1CCCN1C(=O)CNC(=O)c1ccnc2ccccc12 | inactive | inactive | inactive | inactive
 |  | COc1ccc(CNC(=O)C(=O)[C@@H]2CCCN2C(=O)CNC(=O)c2ccnc3ccccc23)cc1 | inactive | inactive | inactive | inactive
 |  | O=C(NC1CC1)C(=O)[C@@H]1CCCN1C(=O)CNC(=O)c1ccnc2ccccc12 | inactive | inactive | inactive | inactive
 |  | CCOC(=O)CNC(=O)C(=O)[C@@H]1CCCN1C(=O)CNC(=O)c1ccnc2ccccc12 | inactive | inactive | inactive | inactive
310 nM |  | N#C[C@@H]1CC(F)(F)CN1C(=O)CNC(=O)c1ccnc2ccccc12 |  |  |  | 
 |  | COc1ccc(CNC(=O)CNC(=O)C(=O)[C@@H]2CCCN2C(=O)CNC(=O)c2ccnc3ccccc23)cc1OC | inactive | inactive | inactive | inactive
 |  | COC(=O)c1ccc(NC(=O)C(=O)[C@@H]2CCCN2C(=O)CNC(=O)c2ccnc3ccccc23)cc1 | inactive | inactive | inactive | inactive
 |  | COC(=O)[C@H](CC(C)C)NC(=O)CNC(=O)C(=O)[C@@H]1CCCN1C(=O)CNC(=O)c1ccnc2ccccc12 | inactive | inactive | inactive | inactive
 |  | CC(C)(C)CNC(=O)C(=O)[C@@H]1CCCN1C(=O)CNC(=O)c1ccnc2ccccc12 | inactive | inactive | inactive | inactive
 |  | O=C(NC(c1ccccc1)c1ccccc1)C(=O)[C@@H]1CCCN1C(=O)CNC(=O)c1ccnc2ccccc12 | inactive | inactive | inactive | inactive
 |  | COc1cccc(CNC(=O)C(=O)[C@@H]2CCCN2C(=O)CNC(=O)c2ccnc3ccccc23)c1 | inactive | inactive | inactive | inactive
 |  | COC(=O)CNC(=O)C(=O)[C@@H]1CCCN1C(=O)CNC(=O)c1ccnc2ccccc12 | inactive | inactive | inactive | inactive
 |  | O=C(CNC(=O)C(=O)[C@@H]1CCCN1C(=O)CNC(=O)c1ccnc2ccccc12)NC1CC1 | inactive | inactive | inactive | inactive
 |  | CNC(=O)CNC(=O)C(=O)[C@@H]1CCCN1C(=O)CNC(=O)c1ccnc2ccccc12 | inactive | inactive | inactive | inactive
320 nM | > 4000 nM | N#C[C@@H]1CCCN1C(=O)CNC(=O)c1ccnc2ccccc12 |  |  |  | 
 |  | CCCCCCNC(=O)CNC(=O)C(=O)[C@@H]1CCCN1C(=O)CNC(=O)c1ccnc2ccccc12 | inactive | inactive | inactive | inactive

IC50 [1] | IC50 (Dipeptidyl peptidase 4) | Structure (SMILES) | Activity (CCRF-CEM) | Activity (HepG2) | Activity (HeLa) | Activity (HL-60)
 |  | O=C(NCC(=O)N1CCCC1)C(=O)[C@@H]1CCCN1C(=O)CNC(=O)c1ccnc2ccccc12 | inactive | inactive | inactive | inactive
0.73 nM | > 4000 nM | CC(C)(C)NC(=O)CNC(=O)C(=O)[C@@H]1CCCN1C(=O)CNC(=O)c1ccnc2ccccc12 | inactive | inactive | inactive | inactive
 |  | COc1ccc(NC(=O)C(=O)[C@@H]2CCCN2C(=O)CNC(=O)c2ccnc3ccccc23)cc1 | inactive | inactive | inactive | inactive
 |  | COC(=O)[C@H](CC(=O)OCc1ccccc1)NC(=O)CNC(=O)C(=O)[C@@H]1CCCN1C(=O)CNC(=O)c1ccnc2ccccc12 | inactive | inactive | inactive | inactive
 |  | CC(C)NC(=O)C(=O)[C@@H]1CCCN1C(=O)CNC(=O)c1ccnc2ccccc12 | inactive | inactive | inactive | inactive
 |  | COC(=O)[C@H](CCC(N)=O)NC(=O)CNC(=O)C(=O)[C@@H]1CCCN1C(=O)CNC(=O)c1ccnc2ccccc12 | inactive | inactive | inactive | inactive
0.4 nM |  | CCCCCNC(=O)C(=O)[C@@H]1CCCN1C(=O)CNC(=O)c1ccnc2ccccc12 | inactive | inactive | inactive | inactive
 |  | COC(=O)[C@H](CCC(=O)NCc1ccccc1)NC(=O)CNC(=O)C(=O)[C@@H]1CCCN1C(=O)CNC(=O)c1ccnc2ccccc12 | inactive | inactive | inactive | inactive
 |  | O=CCNC(=O)CNC(=O)C(=O)[C@@H]1CCCN1C(=O)CNC(=O)c1ccnc2ccccc12 | inactive | inactive | inactive | inactive
 |  | CN(C)C(=O)CNC(=O)C(=O)[C@@H]1CCCN1C(=O)CNC(=O)c1ccnc2ccccc12 | inactive | inactive | inactive | inactive
0.66 nM | > 4000 nM | Cc1ccc(CNC(=O)C(=O)[C@@H]2CCCN2C(=O)CNC(=O)c2ccnc3ccccc23)c(C)c1 | inactive | inactive | inactive | inactive
 |  | CC(C)NC(=O)CNC(=O)C(=O)[C@@H]1CCCN1C(=O)CNC(=O)c1ccnc2ccccc12 | inactive | inactive | inactive | inactive
1.3 nM | > 4000 nM | COC(=O)[C@H](CCC(=O)O)NC(=O)CNC(=O)C(=O)[C@@H]1CCCN1C(=O)CNC(=O)c1ccnc2ccccc12 | inactive | inactive | inactive | inactive
 |  | O=C(NCCc1ccccc1)C(=O)[C@@H]1CCCN1C(=O)CNC(=O)c1ccnc2ccccc12 | inactive | inactive | inactive | inactive
0.53 nM | > 3000 nM | CC(C)(C)OC(=O)CNC(=O)C(=O)[C@@H]1CCCN1C(=O)CNC(=O)c1ccnc2ccccc12 | inactive | inactive | inactive | inactive
 |  | COC(=O)[C@H](CO)NC(=O)CNC(=O)C(=O)[C@@H]1CCCN1C(=O)CNC(=O)c1ccnc2ccccc12 | inactive | inactive | inactive | inactive
0.26 nM | > 3000 nM | O=C(NCc1ccc(F)cc1)C(=O)[C@@H]1CCCN1C(=O)CNC(=O)c1ccnc2ccccc12 | inactive | inactive | inactive | inactive
0.49 nM | > 4000 nM | O=C(NCC(=O)N1CCOCC1)C(=O)[C@@H]1CCCN1C(=O)CNC(=O)c1ccnc2ccccc12 | inactive | inactive | inactive | inactive
 |  | O=C(NC12CC3CC(CC(C3)C1)C2)C(=O)[C@@H]1CCCN1C(=O)CNC(=O)c1ccnc2ccccc12 | inactive | inactive | inactive | inactive
0.29 nM | > 4000 nM | COC(=O)[C@H](CCCCNC(=O)OCc1ccccc1)NC(=O)CNC(=O)C(=O)[C@@H]1CCCN1C(=O)CNC(=O)c1ccnc2ccccc12 | inactive | inactive | inactive | inactive
